Article PMC9516332 (Frontiers in Oncology, 2022)
Like-named read-outs stand apart in the source and are kept apart here.

Assays:
Experiment in all cases: Kinase panel profiling at 1 µmol/L (MSA or IMAP), percentage inhibition
Assay type in all cases: biochemical
[1] = biological target: panel of 255 wild-type kinases (Homo sapiens, UniProt P06213); details: read-out: %-inhibition at 1 µmol/L, INSR
[2] = biological target: panel of 255 wild-type kinases (Homo sapiens, UniProt P17948); details: read-out: %-inhibition at 1 µmol/L, FLT1
[3] = biological target: panel of 255 wild-type kinases (Homo sapiens, UniProt P22694); details: read-out: %-inhibition at 1 µmol/L, PKACβ
[4] = biological target: T1, panel of 255 wild-type kinases (Homo sapiens, UniProt P42681); details: read-out: %-inhibition at 1 µmol/L, TXK
T1 sequence (P42681 1-527): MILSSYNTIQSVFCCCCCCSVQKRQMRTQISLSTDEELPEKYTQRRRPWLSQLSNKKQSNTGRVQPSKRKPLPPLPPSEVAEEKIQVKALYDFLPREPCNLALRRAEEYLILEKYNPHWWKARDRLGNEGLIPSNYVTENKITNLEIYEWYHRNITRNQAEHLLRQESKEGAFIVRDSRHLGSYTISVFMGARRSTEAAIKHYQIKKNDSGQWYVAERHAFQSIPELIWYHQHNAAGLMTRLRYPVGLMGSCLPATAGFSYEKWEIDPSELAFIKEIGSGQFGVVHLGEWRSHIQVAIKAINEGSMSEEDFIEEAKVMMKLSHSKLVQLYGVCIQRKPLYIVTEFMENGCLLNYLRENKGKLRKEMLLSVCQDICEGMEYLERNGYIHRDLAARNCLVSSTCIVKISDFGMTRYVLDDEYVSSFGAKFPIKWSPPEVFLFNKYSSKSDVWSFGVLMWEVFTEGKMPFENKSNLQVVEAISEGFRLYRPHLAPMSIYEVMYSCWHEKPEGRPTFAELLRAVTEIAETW

[5] = biological target: panel of 255 wild-type kinases (Homo sapiens, UniProt Q08345); details: read-out: %-inhibition at 1 µmol/L, DDR1
[6] = biological target: panel of 255 wild-type kinases (Homo sapiens, UniProt Q96RG2); details: read-out: %-inhibition, PASK
[7] = biological target: T2, panel of 255 wild-type kinases (Homo sapiens, UniProt Q9BXA7); details: read-out: %-inhibition at 1 µmol/L, TSSK1
T2 sequence (Q9BXA7 1-367): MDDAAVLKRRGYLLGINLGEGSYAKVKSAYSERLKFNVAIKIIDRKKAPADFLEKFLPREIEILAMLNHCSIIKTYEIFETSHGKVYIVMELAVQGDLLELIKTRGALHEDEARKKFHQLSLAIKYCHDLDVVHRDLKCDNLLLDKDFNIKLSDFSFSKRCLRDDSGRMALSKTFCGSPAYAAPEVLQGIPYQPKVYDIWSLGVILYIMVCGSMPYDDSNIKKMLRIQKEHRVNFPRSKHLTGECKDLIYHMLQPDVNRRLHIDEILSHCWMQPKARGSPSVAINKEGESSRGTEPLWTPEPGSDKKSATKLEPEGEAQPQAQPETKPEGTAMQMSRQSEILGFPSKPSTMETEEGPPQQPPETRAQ

[8] = biological target: T3, panel of 255 wild-type kinases (Homo sapiens, UniProt Q9UL54); details: read-out: %-inhibition at 1 µmol/L, TAOK2
T3 sequence (Q9UL54 1-1235): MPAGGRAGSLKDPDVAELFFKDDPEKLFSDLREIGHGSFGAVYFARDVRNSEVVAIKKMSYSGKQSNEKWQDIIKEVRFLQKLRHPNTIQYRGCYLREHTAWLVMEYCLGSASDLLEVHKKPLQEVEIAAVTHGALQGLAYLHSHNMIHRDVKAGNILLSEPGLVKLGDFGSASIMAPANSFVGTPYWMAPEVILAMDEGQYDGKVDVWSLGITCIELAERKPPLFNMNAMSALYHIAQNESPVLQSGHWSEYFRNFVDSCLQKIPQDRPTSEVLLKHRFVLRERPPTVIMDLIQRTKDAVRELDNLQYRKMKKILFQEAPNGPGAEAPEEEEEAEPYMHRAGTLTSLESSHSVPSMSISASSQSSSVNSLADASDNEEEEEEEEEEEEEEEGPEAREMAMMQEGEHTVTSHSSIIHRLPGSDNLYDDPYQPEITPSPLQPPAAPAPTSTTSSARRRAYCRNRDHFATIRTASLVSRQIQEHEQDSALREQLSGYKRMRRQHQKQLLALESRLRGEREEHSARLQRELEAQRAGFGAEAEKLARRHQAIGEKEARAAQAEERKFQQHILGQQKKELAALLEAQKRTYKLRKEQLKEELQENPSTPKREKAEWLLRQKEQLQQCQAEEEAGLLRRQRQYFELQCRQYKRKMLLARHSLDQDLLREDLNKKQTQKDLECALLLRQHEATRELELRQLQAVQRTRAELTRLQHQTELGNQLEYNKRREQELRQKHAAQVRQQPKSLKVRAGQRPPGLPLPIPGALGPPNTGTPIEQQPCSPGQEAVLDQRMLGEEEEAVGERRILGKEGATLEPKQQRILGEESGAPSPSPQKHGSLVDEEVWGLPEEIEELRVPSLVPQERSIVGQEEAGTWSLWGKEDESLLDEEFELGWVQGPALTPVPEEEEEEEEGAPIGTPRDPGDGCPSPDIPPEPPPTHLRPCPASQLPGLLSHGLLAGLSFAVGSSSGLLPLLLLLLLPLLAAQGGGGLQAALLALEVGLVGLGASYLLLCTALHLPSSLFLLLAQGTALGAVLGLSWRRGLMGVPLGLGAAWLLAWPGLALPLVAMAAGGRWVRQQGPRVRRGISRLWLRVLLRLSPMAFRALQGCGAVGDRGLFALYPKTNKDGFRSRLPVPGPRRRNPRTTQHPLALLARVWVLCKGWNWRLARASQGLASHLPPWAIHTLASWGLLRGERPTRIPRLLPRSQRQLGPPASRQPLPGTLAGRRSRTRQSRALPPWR

[9] = biological target: panel of 255 wild-type kinases (Homo sapiens, UniProt Q9Y463); details: read-out: %-inhibition at 1 µmol/L, DYRK1B
[10] = kinase INSR, 1 µmol/L single concentration
[11] = kinase FLT1, 1 µmol/L single concentration
[12] = kinase PKACβ, 1 µmol/L single concentration
[13] = kinase TXK, 1 µmol/L single concentration
[14] = kinase DDR1, 1 µmol/L single concentration
[15] = PASK, 1 µmol/L single concentration
[16] = kinase TSSK1, 1 µmol/L single concentration
[17] = kinase TAOK2, 1 µmol/L single concentration
[18] = kinase DYRK1B, 1 µmol/L single concentration

| SMILES | inhibition at 1 µM [1, 10] | inhibition at 1 µM [2, 11] | inhibition at 1 µM [3, 12] | inhibition at 1 µM [4, 13] | inhibition at 1 µM [5, 14] | inhibition at 1 µM [6, 15] | inhibition at 1 µM [7, 16] | inhibition at 1 µM [8, 17] | inhibition at 1 µM [9, 18] | inhibition at 1 µM [1] | inhibition at 1 µM [2] | inhibition at 1 µM [3] | inhibition at 1 µM [4] | inhibition at 1 µM [5] | inhibition at 1 µM [6] | inhibition at 1 µM [7] | inhibition at 1 µM [8] | inhibition at 1 µM [9] |
| --- | --- | --- | --- | --- | --- | --- | --- | --- | --- | --- | --- | --- | --- | --- | --- | --- | --- | --- |
| Cc1nc(NC(=O)N2CCC[C@H]2C(N)=O)sc1-c1ccnc(C(C)(C)C(F)(F)F)c1 [alpelisib] | -2.57% | 3% | -20% | -4% | 3.8% | -2% | -5% | -1.44% | 8% |  |  |  |  |  |  |  |  |  |
| Cn1cc(-c2cc3c(N4CCN(c5ncc([C@@](C)(N)c6ccc(F)cc6)cn5)CC4)ncnn3c2)cn1 [avapritinib] | 4.71% | 76% | -19% | 20% |  | 13% | 2.83% | 6% | 47% |  |  |  |  |  |  |  |  |  |
| Cn1cnc2c(F)c(Nc3ccc(Br)cc3F)c(C(=O)NOCCO)cc21 [binimetinib] | 6% | 10% | -0.56% | -3% | -0.162% | -2.45% | 0.849% | 0.465% | -7% |  |  |  |  |  |  |  |  |  |
| CNC(=O)c1ccc(-c2cnc3ncc(Cc4ccc5ncccc5c4)n3n2)cc1F [capmatinib] |  |  |  |  |  |  |  |  |  | 4.5% | 5.7% | -9% | 2.34% | -2.22e-14% | -5% | 3% | 3% | 1.71% |
| COc1cc2ncnc(Nc3ccc(F)c(Cl)c3)c2cc1NC(=O)/C=C/CN1CCCCC1 [dacomitinib] | 1.81% | 20% | 6% | 80% | 101% | 5.35% | -2.48% | 1% | 7% |  |  |  |  |  |  |  |  |  |
| C[C@H](Nc1ncnc2nc[nH]c12)c1cc2cccc(Cl)c2c(=O)n1-c1ccccc1 [duvelisib] | -0.398% | 7.43% | -16% | -0.177% | 6% | -0.608% | -4% | -0.0517% | -0.692% |  |  |  |  |  |  |  |  |  |
| COC(=O)N[C@@H](C)CNc1nccc(-c2cn(C(C)C)nc2-c2cc(Cl)cc(NS(C)(=O)=O)c2F)n1 [encorafenib] | 9% | 17% | 9.51% | -3.43% | 0.442% | -3% | 3% | -0.719% | -3.42% |  |  |  |  |  |  |  |  |  |
| CN1CCN(c2ccc(C(=O)Nc3n[nH]c4ccc(Cc5cc(F)cc(F)c5)cc34)c(NC3CCOCC3)c2)CC1 [entrectinib] | 94% | 76% | -21% | 98% | 99% | 1.19% | 8% | 3% | 6% |  |  |  |  |  |  |  |  |  |
| CCc1nc(C(N)=O)c(Nc2ccc(N3CCC(N4CCN(C)CC4)CC3)c(OC)c2)nc1NC1CCOCC1 [gilteritinib] | 100% | 95% | 22% | 79% | 99% | 2.54% | 95% | 9% | 34% |  |  |  |  |  |  |  |  |  |
| CCN1CCN(c2ccc(Nc3cc(N(C)C(=O)Nc4c(Cl)c(OC)cc(OC)c4Cl)ncn3)cc2)CC1 [infigratinib] | 17% | 91% | -17% | 4.32% | 96% | -1.46% | 3.24% | 91% | -2.3% |  |  |  |  |  |  |  |  |  |
| O=C(Nc1cnn2ccc(N3CCC[C@@H]3c3cc(F)ccc3F)nc12)N1CC[C@H](O)C1 [larotrectinib] | 2% | -0.638% | -14% | 16% | 41% | 0.745% | 4% | 3.76% | 6% |  |  |  |  |  |  |  |  |  |
| C[C@H]1Oc2cc(cnc2N)-c2c(nn(C)c2C#N)CN(C)C(=O)c2ccc(F)cc21 [lorlatinib] | 64% | 3.17% | -18% | 3.52% |  | 0.792% | 84% | -1.11% | -2.8% |  |  |  |  |  |  |  |  |  |
| CCN1C(=O)N(c2c(F)c(OC)cc(OC)c2F)Cc2cnc3[nH]c(CN4CCOCC4)cc3c21 [pemigatinib] | 9% | 95% | -7% | -0.753% | 41% | -5% | 8% | 48% | 6% |  |  |  |  |  |  |  |  |  |
| FC(F)(F)c1ccc(CNc2ccc(Cc3c[nH]c4ncc(Cl)cc34)cn2)cn1 [pexidartinib] | 17% | 82% | 4% | 6.34% | 84% | 6% | 12% | 4% | 4.37% |  |  |  |  |  |  |  |  |  |
